Tests used:
[1] = biological target: T1, Glutaminase kidney isoform, mitochondrial (Homo sapiens) (UniProt O94925); details: filed as negative allosteric modulator
T1 sequence (whole entry): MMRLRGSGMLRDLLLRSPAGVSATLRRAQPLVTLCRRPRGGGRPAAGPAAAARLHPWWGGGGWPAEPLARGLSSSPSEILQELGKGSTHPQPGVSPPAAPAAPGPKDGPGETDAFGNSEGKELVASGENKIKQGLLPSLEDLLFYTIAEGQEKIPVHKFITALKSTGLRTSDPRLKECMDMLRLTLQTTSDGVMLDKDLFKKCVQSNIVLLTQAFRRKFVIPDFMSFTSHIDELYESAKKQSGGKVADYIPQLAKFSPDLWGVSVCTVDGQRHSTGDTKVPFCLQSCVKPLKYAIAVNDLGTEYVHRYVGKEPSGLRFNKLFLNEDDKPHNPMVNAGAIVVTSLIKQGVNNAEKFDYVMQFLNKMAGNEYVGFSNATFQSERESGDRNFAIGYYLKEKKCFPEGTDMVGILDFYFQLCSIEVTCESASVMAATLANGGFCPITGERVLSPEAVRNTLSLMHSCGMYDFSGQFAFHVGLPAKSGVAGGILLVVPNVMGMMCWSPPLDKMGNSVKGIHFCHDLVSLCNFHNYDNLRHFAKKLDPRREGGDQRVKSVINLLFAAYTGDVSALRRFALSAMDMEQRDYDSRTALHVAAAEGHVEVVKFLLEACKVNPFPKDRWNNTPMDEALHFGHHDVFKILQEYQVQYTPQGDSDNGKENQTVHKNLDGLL
Description: Binding affinity to human GLS1 assessed as stabilization of protein by measuring change in melting temperature by protein thermal shift assay

[2] = biological target: T2, Glutaminase kidney isoform, mitochondrial (Homo sapiens, UniProt O94925); experiment: Allosteric inhibition of human GLS1 using glutamine as substrate incubated for 60 mins by NADH/NADPH-based absorbance analysis
T2 sequence (O94925 whole entry): T1 sequence (whole entry)

[3] = Metabolic stability in human liver microsomes assessed as half life at 10 uM by LC-MS/MS analysis; format: ADME, Microsome; details: for half-life at 10 µM: liver microsomes
[4] = biological target: T2, Glutaminase kidney isoform, mitochondrial; experiment: Binding affinity to human GLS1 assessed as dissociation constant by surface plasmon resonance analysis
HCT-116 [5] = experiment: Antiproliferative activity against human HCT-116 cells overexpressing GLS1 assessed as inhibition of cell proliferation measured after 72 hrs by MTT assay; format: functional, cell-based; details: HCT-116, 72 h
[6] = Metabolic stability in human liver microsomes assessed as intrinsic clearance at 10 uM by LC-MS/MS analysis; format: ADME, Microsome; details: read-out: CLH
MDA-MB-436 = experiment: Antiproliferative activity against human MDA-MB-436 cells overexpressing GLS1 assessed as inhibition of cell proliferation measured after 72 hrs by MTT assay; format: functional, cell-based; details: MDA-MB-436, 72 h
[7] = Metabolic stability in human plasma assessed as parent compound remaining at 1 uM measured after 2 hrs by LC-MS/MS analysis; format: ADME, cell-free; details: read-out: Stability
H22 = experiment: Antiproliferative activity against mouse H22 cells assessed as inhibition of cell proliferation measured after 72 hrs by MTT assay; format: functional, cell-based; details: H22, 72 h
CT26 = experiment: Antiproliferative activity against mouse CT26 cells overexpressing GLS1 assessed as inhibition of cell proliferation measured after 72 hrs by MTT assay; format: functional, cell-based; details: CT26, 72 h
[8] = biological target: T3, Glutaminase kidney isoform, mitochondrial (Mus musculus, UniProt D3Z7P3); experiment: Inhibition of GLS1 in mouse brain assessed as inhibition of glutamate production using glutamine as substrate incubated for 1 hr by coupled assay; format: tissue-based
T3 sequence (D3Z7P3 whole entry): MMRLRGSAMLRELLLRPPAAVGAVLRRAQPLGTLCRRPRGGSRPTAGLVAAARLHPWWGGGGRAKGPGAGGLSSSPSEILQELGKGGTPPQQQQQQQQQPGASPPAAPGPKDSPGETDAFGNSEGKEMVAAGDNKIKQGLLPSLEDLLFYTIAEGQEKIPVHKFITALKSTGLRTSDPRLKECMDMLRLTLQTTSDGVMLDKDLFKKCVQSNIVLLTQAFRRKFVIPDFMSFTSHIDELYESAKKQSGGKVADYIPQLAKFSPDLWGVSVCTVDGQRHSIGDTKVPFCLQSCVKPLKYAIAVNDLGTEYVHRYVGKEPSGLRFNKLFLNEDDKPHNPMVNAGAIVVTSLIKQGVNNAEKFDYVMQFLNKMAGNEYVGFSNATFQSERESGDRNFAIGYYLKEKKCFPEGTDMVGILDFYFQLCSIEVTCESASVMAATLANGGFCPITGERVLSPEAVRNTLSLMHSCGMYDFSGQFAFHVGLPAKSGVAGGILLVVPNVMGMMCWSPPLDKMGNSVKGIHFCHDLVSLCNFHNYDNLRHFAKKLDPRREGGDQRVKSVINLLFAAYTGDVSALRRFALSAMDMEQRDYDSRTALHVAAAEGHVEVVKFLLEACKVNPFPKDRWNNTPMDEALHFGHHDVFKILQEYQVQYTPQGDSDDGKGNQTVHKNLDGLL

[9] = Metabolic stability in human liver microsomes assessed as parent compound remaining at 10 uM measured after 30 mins by LC-MS/MS analysis; format: ADME, Microsome
[10] = biological target: T3, Glutaminase kidney isoform, mitochondrial; experiment: Inhibition of GLS1 in mouse kidney assessed as inhibition of glutamate production using glutamine as substrate incubated for 1 hr by coupled assay; format: tissue-based
[11] = Metabolic stability in human liver microsomes assessed as parent compound remaining at 10 uM measured after 60 mins by LC-MS/MS analysis; format: ADME, Microsome
HCT-116 [12] = experiment: Antitumor activity against human HCT-116 cells xenografted in BALB/c SPF mouse assessed as tumor growth inhibition at 100 mg/kg, ip administered BID for 21 days; format: functional; details: time 21 day
[13] = liver microsomes, read-out: Stability

CO[C@H](C(=O)Nc1nnc(NC2CCN(c3nnc(NC(=O)CCc4cn(-c5ccc(C(F)(F)F)cc5)nn4)s3)CC2)s1)c1ccccc1
ΔTm [1]: 15.2 °C | IC50 [2]: 19.3 nM | half-life at 10 µM [3]: 5.21 h | Kd [4]: 81 nM | IC50 (HCT-116 [5]): 160 nM | microsomal CLint at 10 µM [6]: 5.57 µL/min/mg | IC50 (MDA-MB-436): 620 nM | remaining at 2 h, 1 µM [7]: 98%

O=C(Cc1cccc(OC(F)(F)F)c1)Nc1ccc(CCCCc2nnc(NC(=O)Cc3ccccn3)s2)nn1
IC50 (H22): 1340 nM | IC50 (CT26): 420 nM | t1/2 ([3]; microsomes, 10 µM): 1.524 h | IC50 [8]: 20 nM | Stability ([9]; microsomes, 0.5 h, 10 µM): 98% | IC50 [10]: 20 nM | microsomal CLint at 10 µM [6]: 19.5 µL/min/mg | Stability ([11]; microsomes, 1 h, 10 µM): 89% | IC50 (MDA-MB-436): 410 nM | remaining at 2 h, 1 µM [7]: 85% | TGI (HCT-116 [12]): 50.6%

O=C(Cc1ccccc1)Nc1nnc(NC2CCN(c3nnc(NC(=O)CCc4cn(Cc5ccc(C(F)(F)F)cc5)nn4)s3)CC2)s1
IC50 [2]: 8.66 nM | half-life at 10 µM [3]: 1.27 h | IC50 (HCT-116 [5]): 130 nM | microsomal CLint at 10 µM [6]: 23.1 µL/min/mg | IC50 (MDA-MB-436): 510 nM | remaining at 2 h, 1 µM [7]: 79%

COc1ccc(Cn2cc(CCC(=O)Nc3ccc(N4CCC(Nc5nnc(NC(=O)Cc6ccccn6)s5)CC4)nn3)nn2)cc1
IC50 [2]: 24.9 nM | IC50 (HCT-116 [5]): 1450 nM | IC50 (MDA-MB-436): 2040 nM

COc1ccc(Cn2cc(CCC(=O)Nc3ccc(N4CC[C@H](Nc5nnc(NC(=O)Cc6ccccn6)s5)C4)nn3)nn2)cc1
IC50 [2]: > 1000 nM | IC50 (HCT-116 [5]): > 20000 nM | IC50 (MDA-MB-436): > 20000 nM

O=C(Cc1ccccc1)Nc1nnc(N[C@H]2CCN(c3nnc(NC(=O)CCc4cn(-c5ccc(C(F)(F)F)cc5)nn4)s3)C2)s1
IC50 [2]: 216 nM | IC50 (HCT-116 [5]): 15500 nM | IC50 (MDA-MB-436): > 20000 nM

COc1ccc(Cn2cc(CCC(=O)Nc3nnc(N4CCC(Nc5nnc(NC(=O)Cc6ccccc6)s5)CC4)s3)nn2)cc1
IC50 [2]: 14.7 nM | IC50 (HCT-116 [5]): 410 nM | IC50 (MDA-MB-436): 620 nM

O=C(Cc1ccccc1)Nc1nnc(N[C@H]2CCN(c3nnc(NC(=O)CCc4cn(Cc5ccc(C(F)(F)F)cc5)nn4)s3)C2)s1
IC50 [2]: 227 nM | IC50 (HCT-116 [5]): 8270 nM | IC50 (MDA-MB-436): > 20000 nM

O=C(Cc1ccccc1)Nc1nnc(NC2CCN(c3nnc(NC(=O)c4ccn(Cc5ccc(C(F)(F)F)cc5)n4)s3)CC2)s1
IC50 [2]: 17.4 nM | half-life at 10 µM [3]: 1.15 h | IC50 (HCT-116 [5]): 120 nM | microsomal CLint at 10 µM [6]: 25.2 µL/min/mg | IC50 (MDA-MB-436): 530 nM | remaining at 2 h, 1 µM [7]: 76%

Cc1ccc(Cn2cc(CCC(=O)Nc3nnc(N4CC[C@H](Nc5nnc(NC(=O)Cc6ccccc6)s5)C4)s3)nn2)cc1
IC50 [2]: 312 nM | IC50 (HCT-116 [5]): 12500 nM | IC50 (MDA-MB-436): > 20000 nM

Cc1ccc(Cn2cc(CCC(=O)Nc3ccc(N4CC[C@@H](Nc5nnc(NC(=O)Cc6ccccn6)s5)C4)nn3)nn2)cc1
IC50 [2]: 8.9 nM | IC50 (HCT-116 [5]): 490 nM | IC50 (MDA-MB-436): 840 nM

COc1ccc(Cn2cc(CCC(=O)Nc3ccc(N4CC[C@@H](Nc5nnc(NC(=O)Cc6ccccn6)s5)C4)nn3)nn2)cc1OC
IC50 [2]: 35.7 nM | IC50 (HCT-116 [5]): 3880 nM | IC50 (MDA-MB-436): 4480 nM

COc1ccc(Cn2cc(CCC(=O)Nc3nnc(N4CCC(Nc5nnc(NC(=O)Cc6ccccc6)s5)CC4)s3)nn2)cc1OC
IC50 [2]: 77.5 nM | IC50 (HCT-116 [5]): 3250 nM | IC50 (MDA-MB-436): 4210 nM

CO[C@@H](C(=O)Nc1nnc(NC2CCN(c3nnc(NC(=O)CCc4cn(CC5=CC=C(C(F)(F)F)CC5)nn4)s3)CC2)s1)c1ccccc1
IC50 [2]: 4.85 nM | half-life at 10 µM [3]: 1.91 h | IC50 (HCT-116 [5]): 350 nM | microsomal CLint at 10 µM [6]: 15.1 µL/min/mg | IC50 (MDA-MB-436): 840 nM | remaining at 2 h, 1 µM [7]: 91%

CO[C@H](C(=O)Nc1nnc(NC2CCN(c3nnc(NC(=O)CCc4cn(Cc5ccc(C(F)(F)F)cc5)nn4)s3)CC2)s1)c1ccccc1
IC50 [2]: 23.7 nM | half-life at 10 µM [3]: 3.14 h | IC50 (HCT-116 [5]): 300 nM | microsomal CLint at 10 µM [6]: 9.21 µL/min/mg | IC50 (MDA-MB-436): 1090 nM | remaining at 2 h, 1 µM [7]: 95%

O=C(CCc1cn(Cc2ccc(OC(F)(F)F)cc2)nn1)Nc1ccc(N2CC[C@@H](Nc3nnc(NC(=O)Cc4ccccn4)s3)C2)nn1
IC50 [2]: 13.6 nM | IC50 (HCT-116 [5]): 700 nM | IC50 (MDA-MB-436): 880 nM

O=C(CCc1cn(Cc2ccc(C(F)(F)F)cc2)nn1)Nc1ccc(N2CC[C@H](Nc3nnc(NC(=O)Cc4ccccn4)s3)C2)nn1
IC50 [2]: > 1000 nM | IC50 (HCT-116 [5]): > 20000 nM | IC50 (MDA-MB-436): > 20000 nM

Cc1ccc(Cn2cc(CCC(=O)Nc3ccc(CCCCc4nnc(NC(=O)Cc5ccccn5)s4)nn3)nn2)cc1
half-life at 10 µM [3]: 0.655 h | remaining at 0.5 h, 10 µM [9, 13]: 56% | microsomal CLint at 10 µM [6]: 40.2 µL/min/mg | remaining at 1 h, 10 µM [11, 13]: 35% | remaining at 2 h, 1 µM [7]: 72%

O=C(Cc1ccccc1)Nc1nnc(N[C@@H]2CCN(c3nnc(NC(=O)CCc4cn(Cc5ccc(OC(F)(F)F)cc5)nn4)s3)C2)s1
IC50 [2]: 16.7 nM | IC50 (HCT-116 [5]): 580 nM | IC50 (MDA-MB-436): 1650 nM

COc1ccc(Cn2cc(CCC(=O)Nc3nnc(N4CC[C@@H](Nc5nnc(NC(=O)Cc6ccccc6)s5)C4)s3)nn2)cc1
IC50 [2]: 57 nM | IC50 (HCT-116 [5]): 560 nM | IC50 (MDA-MB-436): 760 nM

Cc1cccc(C)c1Cn1cc(CCC(=O)Nc2ccc(N3CC[C@@H](Nc4nnc(NC(=O)Cc5ccccn5)s4)C3)nn2)nn1
IC50 [2]: 41.8 nM | IC50 (HCT-116 [5]): 3640 nM | IC50 (MDA-MB-436): 4290 nM
